ChEMBL document CHEMBL1201862, “PubChem BioAssay data set” (2004)
Calls of active or inactive are those of the source.

Key:
[1] = target: T1, Nuclear receptor subfamily 0 group B member 1 (Homo sapiens, UniProt P51843); assay: Luminescence-based cell-based high throughput dose response assay for inhibitors of the orphan nuclear receptor subfamily 0, group B, member 1 (DAX1; NR0B1). [Related pubchem assays (depositor defined):AID504766, AID504790]; assay type: functional
T1 sequence (P51843 whole entry): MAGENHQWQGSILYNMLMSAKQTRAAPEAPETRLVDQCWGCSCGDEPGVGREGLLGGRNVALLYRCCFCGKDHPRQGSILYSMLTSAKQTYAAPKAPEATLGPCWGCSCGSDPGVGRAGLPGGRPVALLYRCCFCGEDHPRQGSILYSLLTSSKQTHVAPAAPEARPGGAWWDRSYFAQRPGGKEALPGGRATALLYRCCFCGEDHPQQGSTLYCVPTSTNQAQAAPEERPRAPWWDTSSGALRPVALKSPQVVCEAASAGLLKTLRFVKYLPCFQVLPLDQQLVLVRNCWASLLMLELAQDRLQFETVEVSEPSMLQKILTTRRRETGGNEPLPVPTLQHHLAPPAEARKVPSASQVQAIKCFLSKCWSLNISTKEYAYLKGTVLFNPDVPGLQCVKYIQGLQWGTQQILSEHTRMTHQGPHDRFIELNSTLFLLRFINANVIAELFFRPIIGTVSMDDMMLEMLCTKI

HEK293 = assay: cells; assay type: functional, cell-based; conditions: Homo sapiens
Hexokinase HKDC1 = Hexokinase HKDC1 (Homo sapiens, UniProt Q2TB90); assay: SAR analysis of small molecule inhibitors of hexokinase domain containing I (HKDC1). [Related pubchem assays (depositor defined):AID493160, AID493190]; assay type: functional
Hexokinase-1 = Hexokinase-1 (Homo sapiens, UniProt P19367); assay: SAR analysis of small molecule inhibitors of hexokinase domain containing I (HKDC1) in the hexokinase 1 selectivity assay. [Related pubchem assays (depositor defined):AID493160, AID493190]; assay type: functional
[2] = target: T2, Type-1 angiotensin II receptor (Homo sapiens, UniProt P30556); assay: agonist activity at AGTR1 – cell-based, uHTS hits, selectivity assay for APJ receptor agonist project, dose response (AID 488865); assay type: functional;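 also: beta-arrestin recruitment to AT1 measured by enzyme fragment complementation luminescence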
T2 sequence (P30556 whole entry): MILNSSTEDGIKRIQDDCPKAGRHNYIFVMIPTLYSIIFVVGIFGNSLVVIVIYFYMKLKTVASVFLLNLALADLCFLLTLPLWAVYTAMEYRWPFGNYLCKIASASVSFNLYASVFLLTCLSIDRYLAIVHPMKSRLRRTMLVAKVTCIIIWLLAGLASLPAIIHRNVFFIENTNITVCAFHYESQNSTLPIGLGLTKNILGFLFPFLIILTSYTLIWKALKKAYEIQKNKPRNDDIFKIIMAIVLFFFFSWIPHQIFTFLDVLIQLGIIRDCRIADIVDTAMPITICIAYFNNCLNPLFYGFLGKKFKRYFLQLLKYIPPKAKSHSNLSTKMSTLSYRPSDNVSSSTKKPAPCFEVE

Cytochrome P450 2D6 = Cytochrome P450 2D6 (Homo sapiens, UniProt P10635);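 also: CYP2D6 member of a cytochrome P450 panel assay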
Cytochrome P450 3A4 = Cytochrome P450 3A4 (Homo sapiens, UniProt P08684);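 also: CYP3A4 tested as one member of a cytochrome P450 panel screen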
Cytochrome P450 1A2 = target: T3, Cytochrome P450 1A2 (Homo sapiens, UniProt P05177);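 also: PubChem cytochrome P450 panel assay, CYP1A2 panel member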
T3 sequence (P05177 whole entry): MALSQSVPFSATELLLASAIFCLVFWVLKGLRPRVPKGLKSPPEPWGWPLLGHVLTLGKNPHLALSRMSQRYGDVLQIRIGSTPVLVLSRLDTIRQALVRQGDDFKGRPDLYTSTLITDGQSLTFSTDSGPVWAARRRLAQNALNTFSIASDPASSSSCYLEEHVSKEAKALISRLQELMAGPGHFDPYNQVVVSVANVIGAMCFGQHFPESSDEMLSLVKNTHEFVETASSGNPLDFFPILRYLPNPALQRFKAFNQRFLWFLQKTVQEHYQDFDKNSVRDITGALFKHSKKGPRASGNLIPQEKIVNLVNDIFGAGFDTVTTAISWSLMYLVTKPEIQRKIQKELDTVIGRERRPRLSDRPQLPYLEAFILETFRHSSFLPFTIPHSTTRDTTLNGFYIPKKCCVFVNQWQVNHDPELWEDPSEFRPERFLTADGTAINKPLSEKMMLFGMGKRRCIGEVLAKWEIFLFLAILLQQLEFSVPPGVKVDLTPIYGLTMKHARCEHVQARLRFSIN

[3] = target: Voltage-gated inwardly rectifying potassium channel KCNH2 (Homo sapiens, UniProt Q12809); conditions: Potency;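 also: confirmatory quantitative high-throughput screen measuring inhibition of hERG channel activity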
HeLa = assay: ATP-based viability loss in HeLa cells – cell-based, CellTiter-Glo luminescence, cherry-pick samples, cytotoxicity control for MITF activator project, dose response (AID 540259); assay type: functional; conditions: Homo sapiens
[4] = target: T4, Short transient receptor potential channel 4 (Mus musculus, UniProt Q9QUQ5); assay: calcium entry via TRPC4 opening agents – cell-based, HEK293 TRPC4/mu-opioid, Fluo-4 calcium, dose response (AID 434937); assay type: functional
T4 sequence (Q9QUQ5 whole entry): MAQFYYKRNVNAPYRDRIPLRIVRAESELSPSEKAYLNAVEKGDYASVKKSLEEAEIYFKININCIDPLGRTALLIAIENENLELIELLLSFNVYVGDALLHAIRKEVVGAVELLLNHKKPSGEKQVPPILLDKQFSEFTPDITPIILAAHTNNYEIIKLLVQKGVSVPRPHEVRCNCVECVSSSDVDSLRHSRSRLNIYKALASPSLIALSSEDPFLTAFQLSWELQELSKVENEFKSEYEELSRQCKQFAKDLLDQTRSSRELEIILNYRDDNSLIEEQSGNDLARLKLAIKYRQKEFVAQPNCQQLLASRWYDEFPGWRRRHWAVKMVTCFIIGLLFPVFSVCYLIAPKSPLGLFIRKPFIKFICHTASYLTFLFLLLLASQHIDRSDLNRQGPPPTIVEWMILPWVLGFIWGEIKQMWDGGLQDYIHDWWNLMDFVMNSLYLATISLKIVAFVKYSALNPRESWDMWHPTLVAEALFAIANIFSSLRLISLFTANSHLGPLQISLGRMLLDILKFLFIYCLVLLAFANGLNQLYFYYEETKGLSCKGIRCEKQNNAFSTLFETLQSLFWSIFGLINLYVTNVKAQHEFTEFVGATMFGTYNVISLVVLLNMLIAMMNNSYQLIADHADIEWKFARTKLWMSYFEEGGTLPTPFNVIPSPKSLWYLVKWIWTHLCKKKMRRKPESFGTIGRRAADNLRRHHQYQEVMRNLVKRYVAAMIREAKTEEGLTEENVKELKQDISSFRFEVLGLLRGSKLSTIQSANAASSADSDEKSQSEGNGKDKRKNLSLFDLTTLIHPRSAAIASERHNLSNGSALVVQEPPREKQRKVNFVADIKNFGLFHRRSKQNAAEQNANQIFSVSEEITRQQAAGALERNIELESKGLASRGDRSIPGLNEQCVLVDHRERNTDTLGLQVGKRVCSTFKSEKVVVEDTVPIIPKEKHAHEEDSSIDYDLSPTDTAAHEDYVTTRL

Coagulation factor XII = target: T5, Coagulation factor XII (Homo sapiens, UniProt P00748); assay type: functional;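 also: activated factor XIIa alpha cleaving a fluorogenic AMC peptide substrate; inhibitor potency from loss of enzyme activity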
T5 sequence (P00748 whole entry): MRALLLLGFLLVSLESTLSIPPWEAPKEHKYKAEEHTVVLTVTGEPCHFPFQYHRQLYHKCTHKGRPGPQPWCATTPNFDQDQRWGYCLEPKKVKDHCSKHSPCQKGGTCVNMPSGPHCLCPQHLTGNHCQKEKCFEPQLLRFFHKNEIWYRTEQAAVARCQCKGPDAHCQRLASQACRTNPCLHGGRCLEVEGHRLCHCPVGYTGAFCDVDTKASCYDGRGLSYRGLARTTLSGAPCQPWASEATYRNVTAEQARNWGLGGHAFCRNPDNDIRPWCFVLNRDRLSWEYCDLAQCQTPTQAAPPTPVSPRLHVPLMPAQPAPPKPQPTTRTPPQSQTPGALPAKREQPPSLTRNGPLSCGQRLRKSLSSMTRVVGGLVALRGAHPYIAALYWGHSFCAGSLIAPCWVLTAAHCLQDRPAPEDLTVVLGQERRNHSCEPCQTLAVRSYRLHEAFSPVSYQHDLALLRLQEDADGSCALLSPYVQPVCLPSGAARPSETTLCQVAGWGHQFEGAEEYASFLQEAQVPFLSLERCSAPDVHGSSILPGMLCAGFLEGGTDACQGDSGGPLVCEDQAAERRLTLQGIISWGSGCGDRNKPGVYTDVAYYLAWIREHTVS

Fatty acid synthase [5] = target: T6, Fatty acid synthase (Homo sapiens, UniProt P49327); assay: inhibition of human FAS-TE enzyme activity – biochemical, endpoint fluorescence intensity, uHTS hits, dose response (AID 624327); assay type: functional;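 also: fluorescence from hydrolysis of an O-methyl fluorescein acyl ester substrate by the enzyme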
Fatty acid synthase [6] = target: T6, Fatty acid synthase; assay: inhibition of human FAS-TE enzyme activity – biochemical, kinetic fluorescence intensity, dose response (AID 624326); assay type: functional;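 also: rate of fluorescence rise from hydrolysis of a fluorogenic O-methyl fluorescein ester substrate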

Hexokinase HKDC1, sequence (Q2TB90 whole entry, the tested form may be a part): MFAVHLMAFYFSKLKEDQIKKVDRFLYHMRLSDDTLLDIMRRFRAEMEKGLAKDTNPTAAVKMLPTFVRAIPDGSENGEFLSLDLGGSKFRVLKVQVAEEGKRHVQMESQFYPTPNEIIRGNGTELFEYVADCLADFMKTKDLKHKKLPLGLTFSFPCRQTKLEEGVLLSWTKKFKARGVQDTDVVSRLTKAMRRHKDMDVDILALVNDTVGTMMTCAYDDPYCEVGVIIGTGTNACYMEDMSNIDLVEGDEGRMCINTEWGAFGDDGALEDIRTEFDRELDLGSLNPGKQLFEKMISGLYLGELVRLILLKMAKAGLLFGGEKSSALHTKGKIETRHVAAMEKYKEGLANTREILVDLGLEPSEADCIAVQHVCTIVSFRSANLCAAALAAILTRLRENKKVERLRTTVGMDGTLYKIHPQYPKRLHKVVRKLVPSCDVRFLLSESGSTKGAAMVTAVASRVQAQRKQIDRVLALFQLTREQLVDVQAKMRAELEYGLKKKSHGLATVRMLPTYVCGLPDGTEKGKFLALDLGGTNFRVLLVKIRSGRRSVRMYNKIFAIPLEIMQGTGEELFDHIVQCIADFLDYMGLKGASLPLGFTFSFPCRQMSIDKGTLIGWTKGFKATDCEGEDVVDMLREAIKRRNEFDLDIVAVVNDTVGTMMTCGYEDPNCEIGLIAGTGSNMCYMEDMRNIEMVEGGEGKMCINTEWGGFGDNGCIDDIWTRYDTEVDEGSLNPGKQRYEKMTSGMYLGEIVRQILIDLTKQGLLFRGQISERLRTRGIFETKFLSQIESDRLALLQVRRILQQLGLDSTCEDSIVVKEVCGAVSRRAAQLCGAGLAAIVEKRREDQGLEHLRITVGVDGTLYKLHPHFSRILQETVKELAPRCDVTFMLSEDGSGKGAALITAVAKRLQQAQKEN
T6 sequence (P49327 whole entry): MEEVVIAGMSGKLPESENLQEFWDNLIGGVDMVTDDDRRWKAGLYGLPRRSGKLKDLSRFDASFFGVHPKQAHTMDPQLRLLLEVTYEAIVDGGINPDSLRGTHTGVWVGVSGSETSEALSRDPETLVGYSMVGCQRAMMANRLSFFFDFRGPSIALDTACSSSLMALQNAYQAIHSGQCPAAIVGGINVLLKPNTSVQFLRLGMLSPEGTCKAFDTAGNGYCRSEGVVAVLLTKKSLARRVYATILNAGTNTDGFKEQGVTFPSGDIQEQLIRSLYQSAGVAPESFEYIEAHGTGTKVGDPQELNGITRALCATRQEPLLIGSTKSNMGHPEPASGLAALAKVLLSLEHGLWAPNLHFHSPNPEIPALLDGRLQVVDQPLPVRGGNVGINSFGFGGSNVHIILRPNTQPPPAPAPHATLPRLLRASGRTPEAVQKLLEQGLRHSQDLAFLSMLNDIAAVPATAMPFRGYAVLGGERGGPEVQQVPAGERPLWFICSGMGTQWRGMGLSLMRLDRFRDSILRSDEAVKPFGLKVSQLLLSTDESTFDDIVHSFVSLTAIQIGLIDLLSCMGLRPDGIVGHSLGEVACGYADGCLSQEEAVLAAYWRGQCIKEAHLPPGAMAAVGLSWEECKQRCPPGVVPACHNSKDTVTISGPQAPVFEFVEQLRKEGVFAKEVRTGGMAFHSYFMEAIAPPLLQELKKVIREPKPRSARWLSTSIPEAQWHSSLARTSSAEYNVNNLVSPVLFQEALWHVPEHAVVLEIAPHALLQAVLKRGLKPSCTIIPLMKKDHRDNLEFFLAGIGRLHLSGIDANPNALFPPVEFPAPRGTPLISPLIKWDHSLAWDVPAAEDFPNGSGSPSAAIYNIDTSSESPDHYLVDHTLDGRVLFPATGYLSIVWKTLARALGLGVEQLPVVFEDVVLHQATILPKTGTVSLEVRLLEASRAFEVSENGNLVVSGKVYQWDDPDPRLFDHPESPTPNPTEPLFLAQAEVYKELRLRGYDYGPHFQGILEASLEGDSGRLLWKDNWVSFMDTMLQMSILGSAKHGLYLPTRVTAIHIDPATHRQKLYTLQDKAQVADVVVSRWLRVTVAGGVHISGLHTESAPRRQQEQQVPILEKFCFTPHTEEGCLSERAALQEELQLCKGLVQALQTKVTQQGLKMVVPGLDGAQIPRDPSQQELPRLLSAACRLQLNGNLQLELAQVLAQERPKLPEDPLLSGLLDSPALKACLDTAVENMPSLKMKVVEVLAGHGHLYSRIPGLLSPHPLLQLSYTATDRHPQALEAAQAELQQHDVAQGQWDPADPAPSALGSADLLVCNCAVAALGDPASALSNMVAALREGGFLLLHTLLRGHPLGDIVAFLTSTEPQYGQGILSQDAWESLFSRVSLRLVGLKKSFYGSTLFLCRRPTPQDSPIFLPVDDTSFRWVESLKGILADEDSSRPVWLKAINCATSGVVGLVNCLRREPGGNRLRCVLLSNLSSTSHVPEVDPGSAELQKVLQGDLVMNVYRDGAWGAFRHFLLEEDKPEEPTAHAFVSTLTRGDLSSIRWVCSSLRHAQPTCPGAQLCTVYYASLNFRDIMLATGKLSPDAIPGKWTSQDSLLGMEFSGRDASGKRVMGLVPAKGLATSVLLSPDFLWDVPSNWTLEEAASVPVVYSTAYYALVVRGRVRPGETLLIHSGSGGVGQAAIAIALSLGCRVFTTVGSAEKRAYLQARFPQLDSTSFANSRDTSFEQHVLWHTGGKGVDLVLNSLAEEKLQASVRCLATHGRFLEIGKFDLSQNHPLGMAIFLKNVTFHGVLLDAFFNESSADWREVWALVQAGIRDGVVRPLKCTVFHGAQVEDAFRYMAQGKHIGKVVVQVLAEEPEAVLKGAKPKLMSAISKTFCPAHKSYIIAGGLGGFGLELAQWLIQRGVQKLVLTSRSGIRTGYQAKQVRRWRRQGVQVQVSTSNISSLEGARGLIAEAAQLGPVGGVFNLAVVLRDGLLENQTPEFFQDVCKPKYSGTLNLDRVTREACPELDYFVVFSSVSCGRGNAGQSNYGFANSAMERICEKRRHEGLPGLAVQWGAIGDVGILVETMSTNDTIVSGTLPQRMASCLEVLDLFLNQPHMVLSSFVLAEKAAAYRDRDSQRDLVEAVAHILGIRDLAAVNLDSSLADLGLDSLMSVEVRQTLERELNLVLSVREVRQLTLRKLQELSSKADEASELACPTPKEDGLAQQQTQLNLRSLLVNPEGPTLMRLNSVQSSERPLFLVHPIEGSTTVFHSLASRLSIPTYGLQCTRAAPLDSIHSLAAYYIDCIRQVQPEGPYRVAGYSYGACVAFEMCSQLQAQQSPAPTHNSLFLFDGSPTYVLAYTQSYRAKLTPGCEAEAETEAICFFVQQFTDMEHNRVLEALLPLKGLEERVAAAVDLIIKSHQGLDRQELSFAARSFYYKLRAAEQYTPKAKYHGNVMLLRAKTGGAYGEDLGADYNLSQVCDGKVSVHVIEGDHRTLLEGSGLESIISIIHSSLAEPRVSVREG
Hexokinase-1, sequence (P19367 whole entry, the tested form may be a part): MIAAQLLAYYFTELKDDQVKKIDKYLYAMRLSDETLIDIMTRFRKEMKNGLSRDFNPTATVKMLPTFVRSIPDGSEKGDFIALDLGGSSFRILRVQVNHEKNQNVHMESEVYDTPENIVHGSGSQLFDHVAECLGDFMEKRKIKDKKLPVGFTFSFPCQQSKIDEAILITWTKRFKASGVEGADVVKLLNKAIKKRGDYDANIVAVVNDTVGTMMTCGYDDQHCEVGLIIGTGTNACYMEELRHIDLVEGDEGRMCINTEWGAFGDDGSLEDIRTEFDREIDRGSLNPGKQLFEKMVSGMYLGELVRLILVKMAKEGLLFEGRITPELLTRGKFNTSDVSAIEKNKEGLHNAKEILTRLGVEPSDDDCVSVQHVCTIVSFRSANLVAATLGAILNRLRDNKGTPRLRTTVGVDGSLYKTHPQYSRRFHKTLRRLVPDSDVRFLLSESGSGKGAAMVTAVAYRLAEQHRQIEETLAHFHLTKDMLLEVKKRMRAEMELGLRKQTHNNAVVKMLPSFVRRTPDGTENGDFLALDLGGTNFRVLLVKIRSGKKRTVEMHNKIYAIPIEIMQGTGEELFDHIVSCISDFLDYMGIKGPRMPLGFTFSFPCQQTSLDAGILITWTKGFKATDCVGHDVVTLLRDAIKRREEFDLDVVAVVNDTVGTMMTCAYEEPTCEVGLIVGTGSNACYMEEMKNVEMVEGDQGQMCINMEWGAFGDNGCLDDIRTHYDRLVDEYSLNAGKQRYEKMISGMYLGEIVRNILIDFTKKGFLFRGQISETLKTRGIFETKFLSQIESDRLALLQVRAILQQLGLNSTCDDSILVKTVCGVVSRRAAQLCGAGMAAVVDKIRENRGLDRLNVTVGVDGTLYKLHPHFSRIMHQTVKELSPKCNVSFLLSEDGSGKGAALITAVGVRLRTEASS
Cytochrome P450 2D6, sequence (P10635 whole entry): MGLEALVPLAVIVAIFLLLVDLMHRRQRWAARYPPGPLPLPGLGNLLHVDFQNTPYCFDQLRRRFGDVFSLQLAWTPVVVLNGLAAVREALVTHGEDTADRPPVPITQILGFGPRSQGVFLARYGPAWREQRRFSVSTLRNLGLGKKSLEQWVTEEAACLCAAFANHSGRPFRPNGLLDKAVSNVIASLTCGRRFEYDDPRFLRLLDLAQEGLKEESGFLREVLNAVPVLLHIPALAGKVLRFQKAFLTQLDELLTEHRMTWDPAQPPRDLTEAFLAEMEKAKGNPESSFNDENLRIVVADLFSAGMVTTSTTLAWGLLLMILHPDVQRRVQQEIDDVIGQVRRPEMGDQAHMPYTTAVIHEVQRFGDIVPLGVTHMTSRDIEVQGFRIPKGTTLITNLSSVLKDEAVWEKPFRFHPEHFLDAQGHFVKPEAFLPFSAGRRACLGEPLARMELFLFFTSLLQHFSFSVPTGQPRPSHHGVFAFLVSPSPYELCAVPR

## COc1ccc(S(=O)(=O)N2CCN(C(=O)c3ccc(O)nn3)CC2)cc1OC
[1]
  IC50: > 67.5 µM (inactive)
HEK293
  IC50: > 67.5 µM (inactive)

## N#Cc1ccc(CSc2nnc(NC(=O)c3ccco3)s2)cc1
Hexokinase HKDC1
  IC50: > 80 µM (inactive)
Hexokinase-1
  IC50: > 80 µM (inactive)

## CCC(c1nnnn1Cc1ccccc1)N(Cc1cc2cc(OC)ccc2[nH]c1=O)CC1CCCO1 (configuration not stated)
[2]
  EC50: > 100 µM (inactive)

## COc1cccc(C(=O)NCCN2CCN(c3ccc(Cl)cc3)CC2)c1
Cytochrome P450 2D6
  AC50: 31.6 µM (inconclusive)
Cytochrome P450 3A4
  AC50: 15.8 µM (inconclusive)
Cytochrome P450 1A2
  AC50: 12.6 µM (inconclusive)
[3]
  AC50: 1 µM (inconclusive)

## Cc1nc(C(=O)Nc2ccccc2)sc1C(=O)Nc1ccccc1
HeLa
  AC50: 58.6 µM (active)

## CC1CCCCN1S(=O)(=O)c1ccc(C(=O)N(CCCN(C)C)c2nc3ccc(Br)cc3s2)cc1 (configuration not stated)
[2]
  EC50: > 100 µM (inactive)
[4]
  EC50: 4.73 µM (active)

## Cc1cccc(/C=C\c2nc3ccccc3c(=O)n2Cc2ccccc2)c1
Hexokinase HKDC1
  IC50: > 80 µM (inactive)
Hexokinase-1
  IC50: > 80 µM (inactive)

## C[C@]12CC[C@@H](O)CC1CC[C@@H]1[C@@H]2CC[C@]2(C)C(=O)CC[C@@H]12 (some centres not stated)
[3]
  AC50: 25.1 µM (inconclusive)

## CN(C)S(=O)(=O)Oc1ccsc1C(=O)Nc1ccc(Cl)c(Cl)c1
Coagulation factor XII
  IC50: > 50 µM (inactive)

## Cc1ccc2nc(N3CCOCC3)c(C=O)cc2c1
[1]
  IC50: > 67.5 µM (inactive)
HEK293
  IC50: > 67.5 µM (inactive)

## CN1CCN(CCNC(=O)c2cn(Cc3ccccc3F)nn2)CC1
Coagulation factor XII
  IC50: > 50 µM (inactive)

## O=S(=O)(c1ccccc1)n1ccc(-c2cnc(-c3ccccc3)s2)n1
Fatty acid synthase [5]
  IC50: 7.41 µM (active)
Fatty acid synthase [6]
  IC50: 6.85 µM (active)
HeLa
  AC50: 101 µM (active)
